The structures appear in SMILES notation.

Series [1] has as its system C57BL/6J mice. The series is described as follows: Skeletal muscle atrophy dexamethasone model. Type of series: in vivo, mouse. Here is the method: 13-week-old male C57BL/6J mice were treated with drugs as follows: • 1) Injection of vehicle (4% hydroxypropyl-β-cyclodextrin) alone; • 2) 15 mg/kg of dexamethasone dissolved in vehicle; • 3) 15 mg/kg of dexamethasone and 1 mg/kg of ebselen; and • 4) Injection of 15 mg/kg dexamethasone and 3 mg/kg ebselen (n=5 per group).
The muscle condition was evaluated after intraperitoneal injection daily for 14 days with the same drug as above.
A grip strength of each mouse was recorded using a BIO-GS3 (Bioseb, USA). To measure the grip strength, mice were placed on a metal grid to grip the metal grid with four paws and were gently pulled back until the mice were unable to continue holding the grid. Muscle strength was expressed using the maximum value obtained from three trials at 1-minute intervals.
Mice were placed in the center of a grid, and it was made sure that the grid was gripped by the limbs of the mice. Next, the grid was turned over and hung at a height of 50 cm above a baseline, and the hanging time was measured up to 10 minutes.
In the case of the dexamethasone-induced atrophy model, the quadriceps, gastrocnemius and splenic muscles were dissected and weighed. The quadriceps were stained with H&E according to the same protocol used for the glycerol test and used for histological analysis.

In series [2] the test system is IMPase. The series is described as follows: IMPase activity assay in myotubes (myo-inositol assay kit). Type of series: cell-based, mouse. The following applies: 10 μM dexamethasone. Here is the method:
IMPase activity in cells and tissues was measured using a myo-inositol assay kit (Megazyme, Ireland) according to the manufacturer's instructions. The cell […] was sonicated in PBS for 90 seconds with a 30-second on and 15-second off cycle (Vibra-Cell, USA) as described above, and then centrifuged at 13,000×g for 15 minutes as described above. Thus, the supernatant was prepared.

Series [3] concerns FoxO3a. The series is described as follows: Immunocytochemistry of FoxO3a in myotubes. Type of series: cell-based, mouse. How it is done: Myoblasts were differentiated into myotubes in 6 well plates. The myotubes were then immunostained for FoxO3a (Cell Signaling Technology, dilution of 1:400). Alexa Fluor 488 goat anti-mouse IgG was used as a secondary antibody (manufactured by Invitrogen). Nuclei were stained using DAPI solution (1 μM dissolved in third distilled water). Staining was visualized by fluorescence microscopy (Leica DMI3000 B).

Series [4] has as its system human skeletal myoblasts. Kind of series: Dexamethasone atrophy in human skeletal myotubes. Type of series: cell-based. The conditions noted are these: 24 hours. Here is the method: Human skeletal myoblasts were purchased from Thermo-Fisher Scientific. Myoblasts were thawed in a water bath, washed with […], and centrifuged at 180 g for 5 minutes at room temperature. Next, myoblasts were resuspended in DM and seeded in a 12-well plate at a density of 4.8×10^4 cells/well. After 72 hours, the myoblasts were treated with a compound for 24 hours. The myotube diameter was measured by optical microscopy analysis of DIC captured images (Olympus CKX41).

For series [5], the system named is C2C12 myoblasts. The series is described as follows: Myogenesis, myotube formation and morphology without dexamethasone. Type of series: cell-based, mouse. Here is the method:
Then, the myoblasts were treated with a differentiation medium (DMEM supplemented with 2% horse serum and PenStrep) for 72 hours so that the myoblasts were induced to differentiate into myotubes.
In differentiation cultures, myotubes were visualized by treatment with 50 nM MitoTracker Red CMX-Ros and […] DAPI in a differentiation medium at 37° C. for 30 minutes and imaged using a fluorescence microscope (Leica DMI3000B, Germany) as described above.
(§1) To evaluate myotube formation and atrophy, five microscopic fields of H&E-stained or MitoTracker Red CMX-Ros-stained cultures were randomly captured, and multinuclear myotube formation and diameters were calculated. Myotubes were designated as multinucleated cells containing three or more nuclei, and the diameters of myotubes were calculated using ImageJ 1.48 software (National Institutes of Health, Bethesda, MD, USA).

Series [6] concerns C57BL/6J mice. Kind of series: Skeletal muscle degenerative glycerol model. Type of series: in vivo, mouse. How it is done:
The glycerol infusion protocol was used to induce muscle degeneration. Male C57BL/6J mice were anesthetized with PBS containing ketamine (22 mg/kg; Yuhan, Republic of Korea) and xylazine (10 mg/kg; Bayer, Republic of Korea), 100 μL glycerol (50% vol/vol) was injected into unilateral gastrocnemius muscle and splenic muscle.
The mice were treated with vehicle (0.5% methyl cellulose) or with vehicle+ebselen (30 mg/kg) via oral gavage every 24 hours (n=6 per group). A muscle fatigue test was performed after 5 days.
Muscle fatigue was measured using a known protocol (Chiu, et al.). In summary, mice were trained prior to initiating the fatigue task using an accelerated Rotarod (Ugo Basile, Italy). Mice were trained with a Rotarod at a constant speed of 13 rpm for 15 minutes. After 15-minute recovery, mice were placed on a Rotarod adapted to accelerate to 13 to 25 rpm within 3 minutes, for 15 minutes. After 24 hours, the muscle fatigue test was performed with a ramping rate of 13 to 25 rpm within 3 minutes and held at 25 rpm for 30 minutes. For each mouse, a delay time falling from the Rotarod was measured. Mice being tiered were classified as falling 4 times within 1 minute and the test was stopped.
Before sacrificing the mice, the mice were anesthetized by intraperitoneal injection of PBS containing ketamine (22 mg/kg; Yuhan Corporation, Korea) and xylazine (10 mg/kg; Bayer, Korea). After sacrificing the mice, the gastrocnemius and splenic muscles of the glycerol injury model were dissected and weighed. For histological analysis, the muscles were incubated overnight with 4% paraformaldehyde at 4° C., fixed, and embedded in paraffin. 5-μm muscle sections were obtained and was stained with H&E using a kit according to the manufacturer's instructions (Merck & Co., USA). Damaged areas and cross-sectional areas were measured using ImageJ 1.48 software (National Institutes of Health).

Series [7] deals with C2C12 myotubes. The series is described as follows: Dexamethasone-induced myotube atrophy, H&E morphology. Type of series: cell-based, mouse. The following applies: co-treatment with 10 μM dexamethasone, 24 hours. How it is done:
C2C12 myoblasts were seeded onto 6-well plates in a growth medium (GM). After reaching confluence, the cultures were treated with DM for 72 hours, and myotube atrophy was induced with DM containing 10 μM dexamethasone for 24 hours in the presence or absence of the drug of interest. Myotubes were visualized using hematoxylin and eosin staining according to a previously published protocol, and imaged with an optical microscope (Olympus CKX41, Japan). A myotube distribution was calculated by dividing the number of myotubes in each group by the total number of myotubes per image.
as §1

In the case of `O=c1c2ccccc2[se]n1-c1ccccc1` [ebselen], the body weight entry in series [1] (15 mg/kg dexamethasone with ebselen, i.p. daily 14 days, vs untreated mice) is on record as “significant weight loss”; in series [6] (30 mg/kg ebselen, oral gavage every 24 hours), “no significant difference”. For the same compound, in series [1] (15 mg/kg dexamethasone, 1 or 3 mg/kg ebselen, i.p. daily 14 days), the quadriceps mass entry is recorded as “recovered”. Further, the hanging time entry in series [1] (inverted hanging test, vs dexamethasone-treated mice) was “significantly enhanced”. In addition, the IMPase activity entry in series [1] (quadriceps) is on record as “inhibitory effect of ebselen on IMPase activity was confirmed”; in series [2] it was “effective in inhibiting IMPase activity”. The “muscle fiber cross-sectional area” value in series [1] (quadriceps, histology) is reported as “increased”. Also, in series [1] (quadriceps, histology), the “ratio of larger fibers” value is “increased”. Besides, the “expression of Atrogin-1 and Murf-1” value in series [1] (quadriceps, qPCR) was “effectively reduced”; in series [6] (gastrocnemius, qPCR), “effectively reduced”. For the same compound, the grip strength entry in series [1] (vs dexamethasone-treated mice) was “significantly enhanced”. Also, in series [3], the “FoxO3a up-regulation caused by dexamethasone” value was “inhibited”. Moreover, the “myotube diameter and proportion of large diameter myotubes” value in series [4] was “inhibited the effect of dexamethasone”. Further, the “myotube formation and overall myotube diameters” value in series [5] (10 μM ebselen, 5 mM LiCl or 1.25 μM BIO, 24 hours) is “enhanced myotube formation and increased overall myotube diameters”. The “proportion of larger diameter myotubes” value in series [5] (no dexamethasone) is “significantly increased”. For the same compound, the concentration of myo-inositol entry in series [6] (gastrocnemius muscle damaged by glycerol) is “decreased”. In addition, in series [6] (glycerol-injected muscle), the gastrocnemius muscle mass entry is given as “increased”. Further, in series [6] (glycerol-injected splenic muscle), the “mass loss of splenic muscle” value is given as “significantly inhibited”. The damaged area entry in series [6] (histology, H&E) is given as “reduced”. Besides, the fiber cross-sectional area entry in series [6] (histology, H&E) is “larger”. The gastrocnemius mass result in series [6] (non-injected muscles, oral ebselen) is reported as “did not affect”. The average myotube diameter result in series [7] is given as “did not show a decrease”.

These data come from US11878003B2, “Composition comprising organoselenium compound for treatment of skeletal muscle atrophy” (Gwangju Institute of Science and Technology, priority 2021, dated 2024).
